This series can be described thus: in vivo. Particulars: for concentration at 7 day: day 7. The text has this: General Protocol for Prodrugs Rat PK Studies Conducted at ChemPartner, China
A total of three naïve male Wistar Han rats, 200-250 g, were received from Beijing VR Laboratory Animal Co. LTD. Following an acclimation period, the animals were assigned to the study based on acceptable health as determined by a staff veterinarian and catheter patency. Fasting of the animals before or after dosing was not required.
On Day 1, each animal received a single intramuscular injection of prepared test article at a target dose level of 20 mg/kg equivalent of EFdA and at a dose volume of 2 mL/kg. The injection sites were at gastrocnemius and identified with an indelible marker for daily monitoring during the study. The animals were manually restrained for dosing and were not sedated. The dose suspension was mixed well by inversion before each dose to ensure homogeneity. […] In addition, all animals are monitored twice daily by the veterinary staff for clinical abnormalities.
Blood samples were collected from the study animals as detailed in the sample collection Table 6 below
Each blood sample for PK (200 μL) was collected from tail vein. The blood was transferred to a tube containing NaF/Na2EDTA anticoagulant and inverted several times to mix. Draw 150 μL whole blood from the tube, add 150 uL 100 mM ammonium acetate, pH 4 buffer and mix well. The resulting blood samples were transferred to individual polypropylene tubes and immediately placed on dry ice until storage at nominally −80° C. prior to LC-MS/MS analysis.

The mark [1] stands for this setting: day 63, single IM Example 11A 20 mg/kg equivalent of EFdA.
The mark [2] stands for this setting: day 70, single IM Example 11A 20 mg/kg equivalent of EFdA.
Setting [3] is: day 77, single IM Example 11A 20 mg/kg equivalent of EFdA.
The mark [4] stands for this setting: day 84, single IM Example 11A 20 mg/kg equivalent of EFdA.
Where [5] appears, read: day 91, single IM Example 11A 20 mg/kg equivalent of EFdA.
Setting [6] is: day 21, single IM Example 16A 20 mg/kg equivalent of EFdA.
[7] abbreviates: day 28, single IM Example 16A 20 mg/kg equivalent of EFdA.
Where [8] appears, read: day 35, single IM Example 18A 54 mg/kg.
Setting [9] is: day 42, single IM Example 18A 54 mg/kg.
Where [10] appears, read: day 49, single IM Example 18A 54 mg/kg.
The mark [11] stands for this setting: day 35, single IM Example 19A 55 mg/kg.
The mark [12] stands for this setting: day 42, single IM Example 19A 55 mg/kg.
Where [13] appears, read: day 49, single IM Example 19A 55 mg/kg.

Read-outs that look alike come from different tables or passages of the source.

For `C#C[C@]1(COP(=O)(N[C@@H](Cc2ccccc2)C(=O)OCCCCCCCCCCCC)OCC(=O)OCCCCCCCCCCCC)O[C@@H](n2cnc3c(N)nc(F)nc32)C[C@@H]1O` (single isomer, unassigned) [Example 11A], the “Mean concentration of EFdA” value reads like this: (day 21, single IM Example 11A 20 mg/kg equivalent of EFdA) “BQL (BQL = below quantification limit, 0.3-0.5 ng/mL for Example 11A and 0.1-0.3 ng/mL for EFdA)”; (day 28, single IM Example 11A 20 mg/kg equivalent of EFdA) “BQL (BQL = below quantification limit, 0.3-0.5 ng/mL for Example 11A and 0.1-0.3 ng/mL for EFdA)”; (day 35, single IM Example 11A 20 mg/kg equivalent of EFdA) “BQL (BQL = below quantification limit, 0.3-0.5 ng/mL for Example 11A and 0.1-0.3 ng/mL for EFdA)”; (day 42, single IM Example 11A 20 mg/kg equivalent of EFdA) “BQL (BQL = below quantification limit, 0.3-0.5 ng/mL for Example 11A and 0.1-0.3 ng/mL for EFdA)”; (day 49, single IM Example 11A 20 mg/kg equivalent of EFdA) “BQL (BQL = below quantification limit, 0.3-0.5 ng/mL for Example 11A and 0.1-0.3 ng/mL for EFdA)”; (day 56, single IM Example 11A 20 mg/kg equivalent of EFdA) “BQL (BQL = below quantification limit, 0.3-0.5 ng/mL for Example 11A and 0.1-0.3 ng/mL for EFdA)”. For the same compound, the “Mean concentration of EFdA” value runs as follows: under setting [1], “BQL (BQL = below quantification limit, 0.3-0.5 ng/mL for Example 11A and 0.1-0.3 ng/mL for EFdA)”; under setting [2], “BQL (BQL = below quantification limit, 0.3-0.5 ng/mL for Example 11A and 0.1-0.3 ng/mL for EFdA)”; under setting [3], “BQL (BQL = below quantification limit, 0.3-0.5 ng/mL for Example 11A and 0.1-0.3 ng/mL for EFdA)”; under setting [4], “BQL (BQL = below quantification limit, 0.3-0.5 ng/mL for Example 11A and 0.1-0.3 ng/mL for EFdA)”; under setting [5], “BQL (BQL = below quantification limit, 0.3-0.5 ng/mL for Example 11A and 0.1-0.3 ng/mL for EFdA)”. Moreover, the “Mean concentration of Example 11A” value under setting [1] was “BQL (BQL = below quantification limit, 0.3-0.5 ng/mL for Example 11A and 0.1-0.3 ng/mL for EFdA)”; the “Mean concentration of Example 11A” value under setting [2] was “BQL (BQL = below quantification limit, 0.3-0.5 ng/mL for Example 11A and 0.1-0.3 ng/mL for EFdA)”; the “Mean concentration of Example 11A” value under setting [3] is “BQL (BQL = below quantification limit, 0.3-0.5 ng/mL for Example 11A and 0.1-0.3 ng/mL for EFdA)”; the “Mean concentration of Example 11A” value under setting [4] was “BQL (BQL = below quantification limit, 0.3-0.5 ng/mL for Example 11A and 0.1-0.3 ng/mL for EFdA)”; the “Mean concentration of Example 11A” value under setting [5] is “BQL (BQL = below quantification limit, 0.3-0.5 ng/mL for Example 11A and 0.1-0.3 ng/mL for EFdA)”. Besides, the concentration at 1 day (male, Wistar Han, rat, whole blood, intramuscular, day 1, single IM Example 11A 20 mg/kg equivalent of EFdA, read-out: Mean concentration of Example 11A) turned out to be 207 ng/mL. Under “male, Wistar Han, rat, whole blood, intramuscular, single IM Example 11A 20 mg/kg equivalent of EFdA, read-out: Mean concentration of Example 11A”, the concentration at 7 day was 6.93 ng/mL. The concentration at 14 day (male, Wistar Han, rat, whole blood, intramuscular, day 14, single IM Example 11A 20 mg/kg equivalent of EFdA, read-out: Mean concentration of Example 11A) came out at 0.991 ng/mL. In addition, the concentration at 21 day (male, Wistar Han, rat, whole blood, intramuscular, day 21, single IM Example 11A 20 mg/kg equivalent of EFdA, read-out: Mean concentration of Example 11A) came out at 2.68 ng/mL. Moreover, the concentration at 28 day (male, Wistar Han, rat, whole blood, intramuscular, day 28, single IM Example 11A 20 mg/kg equivalent of EFdA, read-out: Mean concentration of Example 11A) came to 2 ng/mL. Also, where the note is “male, Wistar Han, rat, whole blood, intramuscular, day 35, single IM Example 11A 20 mg/kg equivalent of EFdA, read-out: Mean concentration of Example 11A”, the concentration at 35 day stood at 1.35 ng/mL. Moreover, the concentration at 42 day (male, Wistar Han, rat, whole blood, intramuscular, day 42, single IM Example 11A 20 mg/kg equivalent of EFdA, read-out: Mean concentration of Example 11A) came out at 1.03 ng/mL. For the same compound, the concentration at 49 day (male, Wistar Han, rat, whole blood, intramuscular, day 49, single IM Example 11A 20 mg/kg equivalent of EFdA, read-out: Mean concentration of Example 11A) worked out at 0.929 ng/mL. For the same compound, the concentration at 56 day (male, Wistar Han, rat, whole blood, intramuscular, day 56, single IM Example 11A 20 mg/kg equivalent of EFdA, read-out: Mean concentration of Example 11A) worked out at 0.95 ng/mL.

Regarding `C#C[C@]1(COP(=O)(N[C@@H](C)C(=O)OCCCCCCCCCCCCCCCCCCCCCC)Oc2ccccc2)O[C@@H](n2cnc3c(N)nc(F)nc32)C[C@@H]1O` (single isomer, unassigned) [Example 16A], the “Mean concentration of EFdA” value is given as “BQL (BQL = below quantification limit, 0.3 ng/mL for both)” (day 1, single IM Example 16A 20 mg/kg equivalent of EFdA); “BQL (BQL = below quantification limit, 0.3 ng/mL for both)” under setting [6]; “BQL (BQL = below quantification limit, 0.3 ng/mL for both)” under setting [7]. Also, the “Mean concentration of Example 16A” value reads like this: (day 14, single IM Example 16A 20 mg/kg equivalent of EFdA) “BQL (BQL = below quantification limit, 0.3 ng/mL for both)”; under setting [6], “BQL (BQL = below quantification limit, 0.3 ng/mL for both)”; under setting [7], “BQL (BQL = below quantification limit, 0.3 ng/mL for both)”. Moreover, where the note is “male, Wistar Han, rat, in vivo, day 1, single IM Example 16A 20 mg/kg equivalent of EFdA, read-out: Mean concentration of Example 16A”, the concentration at 1 day is 3.05 ng/mL. The concentration at 7 day (male, Wistar Han, rat, in vivo, single IM Example 16A 20 mg/kg equivalent of EFdA, read-out: Mean concentration of Example 16A) came to 1.03 ng/mL.

With `C#C[C@]1(COP(=O)(N[C@@H](Cc2ccccc2)C(=O)OCCCCCCCCCCCCCC)Oc2ccccc2)O[C@@H](n2cnc3c(N)nc(F)nc32)C[C@@H]1O` (single isomer, unassigned) [Example 18A], the “Mean concentration of EFdA” value is “BQL (BQL = below quantification limit, 0.3 ng/mL for both)” (day 28, single IM Example 18A 54 mg/kg); “BQL (BQL = below quantification limit, 0.3 ng/mL for both)” under setting [8]; “BQL (BQL = below quantification limit, 0.3 ng/mL for both)” under setting [9]; “BQL (BQL = below quantification limit, 0.3 ng/mL for both)” under setting [10]. For the same compound, the “Mean concentration of Example 18A” value runs as follows: under setting [8], “BQL (BQL = below quantification limit, 0.3 ng/mL for both)”; under setting [9], “BQL (BQL = below quantification limit, 0.3 ng/mL for both)”; under setting [10], “BQL (BQL = below quantification limit, 0.3 ng/mL for both)”. In addition, for the setting “male, Wistar Han, rat, in vivo, day 1, single IM Example 18A 54 mg/kg, read-out: Mean concentration of Example 18A”, the concentration at 1 day was found to be 2.47 ng/mL. Moreover, for the setting “male, Wistar Han, rat, in vivo, single IM Example 18A 54 mg/kg, read-out: Mean concentration of Example 18A”, the concentration at 7 day came out at 12 ng/mL. The concentration at 14 day (male, Wistar Han, rat, in vivo, day 14, single IM Example 18A 54 mg/kg, read-out: Mean concentration of Example 18A) came out at 1.44 ng/mL. In addition, the concentration at 21 day (male, Wistar Han, rat, in vivo, day 21, single IM Example 18A 54 mg/kg, read-out: Mean concentration of Example 18A) amounted to 0.947 ng/mL. Also, the concentration at 28 day (male, Wistar Han, rat, in vivo, day 28, single IM Example 18A 54 mg/kg, read-out: Mean concentration of Example 18A) is 0.614 ng/mL.

`C#C[C@]1(COP(=O)(N[C@@H](Cc2ccccc2)C(=O)OCCCCCCCCCCCCCCC)Oc2ccccc2)O[C@@H](n2cnc3c(N)nc(F)nc32)C[C@@H]1O` (single isomer, unassigned) [Example 19A]: the “Mean concentration of EFdA” value is, setting by setting: (day 28, single IM Example 19A 55 mg/kg) “BQL (BQL = below quantification limit, 0.3 ng/mL for both)”; under setting [11], “BQL (BQL = below quantification limit, 0.3 ng/mL for both)”; under setting [12], “BQL (BQL = below quantification limit, 0.3 ng/mL for both)”; under setting [13], “BQL (BQL = below quantification limit, 0.3 ng/mL for both)”. For the same compound, the “Mean concentration of Example 19A” value by setting is: under setting [11], “BQL (BQL = below quantification limit, 0.3 ng/mL for both)”; under setting [12], “BQL (BQL = below quantification limit, 0.3 ng/mL for both)”; under setting [13], “BQL (BQL = below quantification limit, 0.3 ng/mL for both)”. For the same compound, the concentration at 1 day (male, Wistar Han, rat, in vivo, day 1, single IM Example 19A 55 mg/kg, read-out: Mean concentration of Example 19A) came to 2.37 ng/mL. The concentration at 7 day (male, Wistar Han, rat, in vivo, single IM Example 19A 55 mg/kg, read-out: Mean concentration of Example 19A) amounted to 9.08 ng/mL. In addition, under “male, Wistar Han, rat, in vivo, day 14, single IM Example 19A 55 mg/kg, read-out: Mean concentration of Example 19A”, the concentration at 14 day came to 3.06 ng/mL. Moreover, the concentration at 21 day (male, Wistar Han, rat, in vivo, day 21, single IM Example 19A 55 mg/kg, read-out: Mean concentration of Example 19A) stood at 1.45 ng/mL. The concentration at 28 day (male, Wistar Han, rat, in vivo, day 28, single IM Example 19A 55 mg/kg, read-out: Mean concentration of Example 19A) is 0.909 ng/mL.

The values are drawn from patent US20230151049A1, “Compounds Useful in HIV Therapy” (priority 2020, published 2023).
